Reference: US6737383B1, “Herbicidal oxadiazolidines” (priority 1999, dated 2004)

Key:
smallflower flatsedge = assay: Test B flood test smallflower flatsedge; assay type: in vivo, Cyperus difformis
Method in brief: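 Plants were grown to the 2-leaf stage before treatment with test chemical, then held in a greenhouse for twelve to sixteen days. Injury was visually rated against untreated controls on a 0–10 scale, where 0 is no effect and 10 is complete control.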

winter wheat [1] = assay: Test E winter wheat; assay type: in vivo, Triticum aestivum; conditions: Preemergence
winter wheat [2] = assay: Test E winter wheat; assay type: in vivo, Triticum aestivum; conditions: Postemergence
Method in brief: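 Plants were grown under normal greenhouse practice; for postemergence, in sandy loam soil mixed 60:40 with potting mix, treated at the 1- to 4-leaf stage. The compound was in a non-phytotoxic solvent carrying a surfactant. After roughly 21 to 28 days plants were scored visually against untreated plants.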

blackgrass [3] = assay: Test B pre/postemergence blackgrass; assay type: in vivo, Alopecurus myosuroides
Method in brief: (§1)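 Test chemicals in a non-phytotoxic solvent mixture with surfactant were sprayed preemergence onto planted seeds and postemergence onto plants 2 to 18 cm tall (1- to 4-leaf stage). After twelve to sixteen days in a greenhouse, injury was visually rated against untreated controls from 0 (no effect) to 10 (complete control).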

bedstraw = assay: Test B pre/postemergence bedstraw; assay type: in vivo, Galium aparine
Method in brief: as §1

blackgrass [4] = assay: Test E blackgrass; assay type: in vivo, Alopecurus myosuroides; conditions: Preemergence
surinam grass = assay: Test B pre/postemergence surinam grass; assay type: in vivo, Brachiaria decumbens
Method in brief: as §1

winter barley = assay: Test E winter barley; assay type: in vivo, Hordeum vulgare; conditions: Preemergence
Italian ryegrass = assay: Test E Italian ryegrass; assay type: in vivo, Lolium multiflorum; conditions: Preemergence
wild oat = assay: Test E wild oat; assay type: in vivo, Avena fatua; conditions: Preemergence
green foxtail = assay: Test E green foxtail; assay type: in vivo, Setaria viridis; conditions: Preemergence
[5] = Rate 125 g/ha, Pre-emergence, flood test species, scale 0 to 10 where 0 is no effect and 10 is complete control
[6] = Rate 250 g/ha, Pre-emergence, flood-test species, scale 0 to 10, 0 is no effect, 10 is complete control
[7] = Rate 500 g/ha, Pre-emergence, flood test species, scale 0 to 10 (0 no effect, 10 complete control)
[8] = Rate 500 g/ha, 0 to 100 scale (0 no effect, 100 complete control)
[9] = Rate 1000 g/ha, 0 to 100 scale, 0 no effect, 100 complete control
[10] = Rate 1000 g/ha, 0 to 100 scale where 0 is no effect and 100 is complete control
[11] = Postemergence, Rate 125 g/ha, scale 0 to 10, 0 is no effect, 10 is complete control
[12] = Preemergence, Rate 62 g/ha, scale 0 to 10 (0 no effect, 10 complete control)
[13] = Preemergence, Rate 250 g/ha, scale of 0 to 10 where 0 is no effect and 10 is complete control
[14] = Preemergence, Rate 500 g/ha, scale of 0 to 10 where 0 is no effect and 10 is complete control
[15] = Rate 62 g/ha, Postemergence, scale of 0 to 10 where 0 is no effect and 10 is complete control
[16] = Rate 250 g/ha, Postemergence, scale of 0 to 10 where 0 is no effect and 10 is complete control
[17] = Rate 500 g/ha, Postemergence, scale 0 to 10, 0 no effect, 10 complete control
[18] = Preemergence, Rate 62 g/ha, scale of 0 to 10 where 0 is no effect and 10 is complete control
[19] = Preemergence, Rate 125 g/ha, 0 is no effect, 10 is complete control
[20] = Preemergence, Rate 250 g/ha, scale 0 to 10, 0 is no effect, 10 is complete control
[21] = Rate 125 g/ha, Postemergence, scale 0 to 10
[22] = Rate 500 g/ha, Postemergence, scale 0 to 10

CC(C)N(C(=O)n1oc(=O)n(C2CCCCCC2)c1=O)c1ccccc1 [Compound 341]
Plant response rating, S. Flatsedge (0 to 10 scale, 0 is no effect, 10 is complete control) (smallflower flatsedge; Rate 62 g/ha, flood test species, Pre-emergence, visual evaluation after twelve to sixteen days): 1 | S. Flatsedge plant response rating (smallflower flatsedge; [5]): 4 | S. Flatsedge plant response rating (smallflower flatsedge; [6]): 9 | S. Flatsedge plant response rating (smallflower flatsedge; [7]): 9 | Plant response rating, Wheat (winter) (winter wheat [1]; Rate 250 g/ha, 0 to 100 scale): 40 | Plant response rating, Wheat (winter) (winter wheat [1]; [8]): 50 | Plant response rating, Wheat (winter) (winter wheat [1]; [9]): 85 | Plant response rating, Wheat (winter) (winter wheat [2]; Rate 250 g/ha, 0 to 100 scale, 0 is no effect, 100 is complete control): 70 | Plant response rating, Wheat (winter) (winter wheat [2]; [10]): 65 | Plant response rating, Wheat (winter) (winter wheat [2]; Rate 500 g/ha, 0 to 100 scale, 0 is no effect, 100 is complete control): 65 | Plant response rating, Blackgrass (blackgrass [3]; [11]): 0 | Plant response rating, Blackgrass (blackgrass [3]; [12]): 0 | Blackgrass plant response rating (0 to 10 scale) (blackgrass [3]; Preemergence, Rate 125 g/ha): 2 | Blackgrass plant response rating (blackgrass [3]; [13]): 6 | Blackgrass plant response rating (blackgrass [3]; [14]): 7 | Blackgrass plant response rating (blackgrass [3]; [15]): 0 | Plant response rating, Blackgrass (blackgrass [3]; [16]): 2 | Plant response rating, Blackgrass (blackgrass [3]; [17]): 2 | Plant response rating, Bedstraw (bedstraw; [11]): 0 | Plant response rating, Bedstraw (bedstraw; [12]): 0 | Bedstraw plant response rating (0 to 10 scale) (bedstraw; Preemergence, Rate 125 g/ha): 0 | Bedstraw plant response rating (bedstraw; [14]): 2 | Bedstraw plant response rating (bedstraw; [15]): 0 | Plant response rating, Bedstraw (bedstraw; [16]): 4 | Plant response rating, Bedstraw (bedstraw; [17]): 8 | Plant response rating, Blackgrass (blackgrass [4]; Rate 250 g/ha, 0 to 100 scale): 40 | Plant response rating, Blackgrass (blackgrass [4]; [8]): 60 | Plant response rating, Blackgrass (blackgrass [4]; [9]): 90 | Plant response rating, B. signalgrass (surinam grass; [11]): 0 | Plant response rating, B. signalgrass (surinam grass; [12]): 0 | B. signalgrass plant response rating (0 to 10 scale, 0 is no effect, 10 is complete control) (surinam grass; Preemergence, Rate 125 g/ha): 0 | B. signalgrass plant response rating (surinam grass; [13]): 0 | B. signalgrass plant response rating (surinam grass; [14]): 0 | B. signalgrass plant response rating (surinam grass; [15]): 0 | Plant response rating, B. signalgrass (surinam grass; [16]): 0 | Plant response rating, B. signalgrass (surinam grass; [17]): 2 | Plant response rating, Barley (winter) (winter barley; Rate 250 g/ha, 0 to 100 scale, 0 no effect, 100 complete control): 70 | Plant response rating, Barley (winter) (winter barley; [8]): 60 | Plant response rating, Barley (winter) (winter barley; [9]): 80 | Plant response rating, I. Ryegrass (Italian ryegrass; Rate 250 g/ha, 0 to 100 scale): 50 | Plant response rating, I. Ryegrass (Italian ryegrass; [8]): 55 | Plant response rating, I. Ryegrass (Italian ryegrass; [9]): 55 | Plant response rating, Wild oat (wild oat; Rate 250 g/ha, 0 to 100 scale): 60 | Plant response rating, Wild oat (wild oat; [8]): 70 | Plant response rating, Wild oat (wild oat; [9]): 80 | Plant response rating, Green foxtail (green foxtail; Rate 250 g/ha, 0 to 100 scale): 25 | Plant response rating, Green foxtail (green foxtail; [8]): 55 | Plant response rating, Green foxtail (green foxtail; [9]): 85

Cc1ccccc1-n1c(=O)on(C(=O)N(c2ccccc2F)C(C)C)c1=O [Compound 204]
S. Flatsedge plant response rating (smallflower flatsedge; Rate 62 g/ha, headed Pre-emergence (flood test species), scale 0 to 10 (0 no effect, 10 complete control)): 0 | S. Flatsedge plant response rating (smallflower flatsedge; [5]): 0 | S. Flatsedge plant response rating (smallflower flatsedge; [6]): 0 | S. Flatsedge plant response rating (smallflower flatsedge; [7]): 0 | Wheat (winter) plant response rating (0 to 100 scale) (winter wheat [1]; Rate 250 g/ha): 30 | Plant response rating, Wheat (winter) (winter wheat [1]; [10]): 50 | Plant response rating, Wheat (winter) (winter wheat [2]; Rate 1000 g/ha, 0 to 100 scale, 0 is no effect and 100 is complete control): 30 | Blackgrass plant response rating (blackgrass [3]; [18]): 0 | Blackgrass plant response rating (0 to 10 scale) (blackgrass [3]; [19]): 2 | Blackgrass plant response rating (blackgrass [3]; [20]): 2 | Plant response rating, Blackgrass (blackgrass [3]; [14]): 5 | Blackgrass plant response rating (blackgrass [3]; [15]): 0 | Blackgrass plant response rating (blackgrass [3]; [21]): 2 | Plant response rating (0 to 10; 0 is no effect, 10 is complete control), Blackgrass (blackgrass [3]; Rate 250 g/ha, Postemergence): 3 | Blackgrass plant response rating (blackgrass [3]; [22]): 7 | Bedstraw plant response rating (bedstraw; [18]): 0 | Bedstraw plant response rating (0 to 10 scale) (bedstraw; [19]): 0 | Bedstraw plant response rating (bedstraw; [20]): 0 | Plant response rating, Bedstraw (bedstraw; [14]): 0 | Bedstraw plant response rating (bedstraw; [15]): 0 | Bedstraw plant response rating (bedstraw; [21]): 0 | Plant response rating (0 to 10; 0 is no effect, 10 is complete control), Bedstraw (bedstraw; Rate 250 g/ha, Postemergence): 6 | Bedstraw plant response rating (bedstraw; [22]): 7 | Blackgrass plant response rating (0 to 100 scale) (blackgrass [4]; Rate 250 g/ha): 55 | Plant response rating, Blackgrass (blackgrass [4]; [10]): 95 | B. signalgrass plant response rating (surinam grass; [18]): 0 | B. signalgrass plant response rating (0 to 10 scale) (surinam grass; [19]): 0 | B. signalgrass plant response rating (surinam grass; [20]): 0 | Plant response rating, B. signalgrass (surinam grass; [14]): 2 | B. signalgrass plant response rating (surinam grass; [15]): 0 | B. signalgrass plant response rating (surinam grass; Rate 125 g/ha, Postemergence, scale 0 (no effect) to 10 (complete control)): 0 | Plant response rating, B. signalgrass (surinam grass; Rate 250 g/ha, Postemergence, scale 0 to 10, 0 is no effect, 10 is complete control): 0 | B. signalgrass plant response rating (surinam grass; [17]): 0 | Barley (winter) plant response rating (0 to 100 scale) (winter barley; Rate 250 g/ha): 50 | Plant response rating, Barley (winter) (winter barley; [10]): 30 | I. Ryegrass plant response rating (0 to 100 scale) (Italian ryegrass; Rate 250 g/ha): 50 | Plant response rating, I. Ryegrass (Italian ryegrass; [10]): 65 | Wild oat plant response rating (0 to 100 scale) (wild oat; Rate 250 g/ha): 50 | Plant response rating, Wild oat (wild oat; [10]): 50 | Green foxtail plant response rating (0 to 100 scale) (green foxtail; Rate 250 g/ha): 75 | Plant response rating, Green foxtail (green foxtail; [10]): 100
